Reference: patent US20240201205A1, “METHOD FOR DETECTING NEUROLOGICAL DISEASES USING SUPRAMOLECULE POLYMER THERAPEUTICS” (The Regents of the University of California, priority 2022, published 2024)

Columns and labels:
[1] = target: T1, α-synuclein fibrils isolated from an MSA patient sample (Homo sapiens, UniProt P37840); assay: Cryo-EM co-structures of compounds with α-synuclein fibrils from MSA patient; type: binding; settings: fibrils from MSA patient sample; 20 μM ligand
T1 construct: fresh-frozen tissue from the cerebellum of patients clinically and neuropathologically diagnosed with MSA; from tissue; host or cells: cerebellum of MSA patients (sarkosyl-insoluble filament preparation)
Protocol: MSA filament purification. Filament purification was based on Schweigenhauser et al., 2020^2. Briefly, 1-2 g of fresh-frozen tissue from the cerebellum of patients clinically and neuropathologically diagnosed with MSA was homogenized at 20 mL/g of tissue in 10 mM Tris-HCl (pH 7.4), 800 mM NaCl, 1 mM EGTA, and 10% sucrose. A final concentration of 1% N-laurosarcosinate (w/v) was added to the homogenates, and these mixtures were incubated at 37° C. for 30 minutes. Homogenates were then centrifuged at 10,000 g for 10 minutes, and the supernatant was kept and then centrifuged at 100,000 g for 20 minutes. The pellets were resuspended at 500 μL/g of frozen tissue in 10 mM Tris-HCl (pH 7.4), 800 mM NaCl, 1 mM EGTA, and 10% sucrose. This was followed by another centrifugation at 3,000 g for 5 minutes. The supernatant was kept and diluted threefold with 50 mM Tris-HCl (pH 7.4), 150 mM NaCl, 10% sucrose, and 2% sarkosyl, followed by another centrifugation at 150,000 g for 1 hour. The final pellet resuspended in 30 mM Tris-HCl (pH 7.4) at a concentration of 100 μL/g frozen tissue.
Cryo-EM sample preparation and data collection. Purified frontal cortex and cerebellum tissue was incubated with 20 μM ligand for 45 minutes prior to freezing. For the tau PHF, 3 μL of purified filaments mixed with GTP-1 was added to a glow-discharged 200 mesh 1.2/1.3R Au Quantifoil grid for 10 seconds before blotting for 2 seconds, and then a second 3 μL aliquot was added for 3 seconds and blotted for 1 second before being plunge frozen in liquid ethane using a FEI Vitrobot Mark IV (Thermo Fisher Scientific). For the synuclein ligands, 3 μL of purified filaments mixed with compound was added to a 200 mesh 1.2/1.3R Au Quantifoil grid coated with a 2 nm thick layer of carbon, which had not been glow discharged. After 30 seconds, grids were blotted for 7.5 seconds at room temperature and 100% humidity. Grids were plunge frozen in liquid ethane using a FEI Vitrobot Mark IV. […] A defocus range of 0.8 to 1.8 μm was used with a total exposure time of 2.024 seconds fractionated into 0.025 seconds subframes. The total dose for each movie was 46 electrons/Å^2. Movies were motion-corrected using MotionCor2^3 in Scipion^4 and were Fourier cropped by a factor of 2 to a final pixel size of 0.834 Å per pixel.
Image processing. All image processing was done in RELION 4^5, and the same workflow was used for each dataset. Dose-weighted summed micrographs were imported into RELION 4. The contrast transfer function was estimated using CTFFIND-4.1^6. Filaments were manually picked and then segments were extracted with a box size of 900 pixels downscaled to 300 pixels. Contaminants and segments contributing to straight filaments were separated out using reference-free 2D class averaging. The remaining segments were re-extracted with a box size of 288 pixels without downscaling. An initial model was generated from a cylinder in RELION. One or more rounds of 3D classification with image alignment were performed, with helical rise and […] parameters fixed to eliminate obvious junk particles. One or more rounds of 3D auto-refinement was run using the best map from 3D classification low-pass filtered to 10 Å, allowing rise and twist parameters to vary. Maps were sharpened using the standard post-processing procedures in RELION.
Model building, refinement, and analysis. Prior to ligand placement, a single strand of a previously solved MSA or tau PHF filament structure^2 (PDB: 6XYQ) was refined against the density using Phenix^7. Refinement of the ligand binding pocket was done in COOT^8. Ligands were placed by hand in the density using Chimera^9. This model was then translated to give a stack spanning 5 rungs.

[2] = system: Alzheimer's disease tau paired-helical filaments (PHFs); assay: Cryo-EM co-structure of GTP-1 with Alzheimer's disease tau paired-helical filaments; type: binding, human; settings: AD patient filaments
Protocol: Samples were incubated with 20 uM GTP-1 prior to vitrification. […] The micrograph images and their 2D classification reveal well-resolved filaments primarily in the PHF conformation, with crossover distances ranging from 700-800 Å. A minor population of straight filaments (SF) was also identified; however, further structural characterization was not feasible due to limited abundance. […] The PHF structure is comprised of two protofilaments related by two-fold symmetry with a 2.37 Å rise and 179.45° twist, consistent with previously reported structures of PHFs prepared from AD brains (13, 15).
Tau PHF filament purification. Filament purification was based on Fitzpatrick et al., 2017^1. […]
Cryo-EM sample preparation and data collection. […] For the tau PHF, 3 μL of purified filaments mixed with GTP-1 was added to a glow-discharged 200 mesh 1.2/1.3R Au Quantifoil grid for 10 seconds before blotting for 2 seconds, and then a second 3 μL aliquot was added for 3 seconds and blotted for 1 second before being plunge frozen in liquid ethane using a FEI Vitrobot Mark IV (Thermo Fisher Scientific). For the synuclein ligands, 3 μL of purified filaments mixed with compound was added to a 200 mesh 1.2/1.3R Au Quantifoil grid coated with a 2 nm thick layer of carbon, which had not been glow discharged. […]

With CNc1nc(=O)n(-c2nc(-c3cc(C)cc(C)n3)oc2-c2ccc(F)c(F)c2)cc1F [compound 294] the “binding to α-synuclein fibrils (cryo-EM co-structure)” value [1] was “bound to fibrils isolated from an MSA patient sample”.

With FCCC1CCN(c2ccn3c(n2)nc2ccccc23)CC1 [GTP-1] the “binding site on tau PHF” value [2] was “bound to a solvent exposed cleft (residues 351-360)”.

In the case of CNc1nc(=O)n(-c2nc(-c3cccc(Cl)c3)oc2-c2ccc(Cl)c(F)c2)cc1F [Compound 125, 1-(5-(4-chloro-3-fluorophenyl)-2-(3-chlorophenyl)oxazol-4-yl)-5-fluoro-4-(methylamino)pyrimidin-2(1H)-one], the “binding to α-synuclein fibrils (cryo-EM co-structure)” value [1] is reported as “bound to fibrils isolated from an MSA patient sample”.
